Assay results as given in patent US5827827A, “HIV-1 protease inhibitors” (The Scripps Research Institute, priority 1996, dated 1998).

How the values were obtained:
HIV-1 protease = target: T1, HIV-1 protease (Human immunodeficiency virus type 1 group M subtype B, UniProt P03369); test: HIV-1 PR inhibition (HPLC assay of HIV substrate IV cleavage after preincubation with inhibitor); assay type: biochemical
T1 construct: each of the identical 99 amino acid subunits contributes a single aspartyl residue to the catalytic site; made in house; host or cells: chemical synthesis (no expression host); obtained from Dr. Stephen Kent, The Scripps Research Institute
Procedure: Typical reactions were carried out at room temperature (25° C.) in 150 μl total volumes of 100 mM MES buffer, pH 6.2, containing 1 mM ethylenediaminetetraacetic acid (EDTA) and 2 mM dithiothreitol (DTT) plus 0.1 percent (v/v) Triton X-100.
Synthetic HIV-1 protease [0.5 μg, obtained from Dr. Stephen Kent of The Scripps Research Institute; see Cell, 1988, 54; 363-368] was first incubated in buffer with (or without) various concentrations of "inhibitor(s)" for 30 minutes at 25° C. The protease reaction was then initiated by the addition of HIV substrate IV (Bachem Bioscience Inc.) at fixed concentrations (e.g., 100 mg/ml). HIV Substrate IV has the sequence
Lys-Ala-Arg-Val-Nle-p-NO2 Phe-glu-Ala-Nle-NH2 (SEQ ID NO 15)
At three appropriate times (normally 40, 80 and 120 minutes) the hydrolysis was stopped by adding a 40 μl aliquot from the reaction to 40 μl of a prepared quench solution. The quench solution was 1:4 acetonitrile:water (3 percent trifluoroacetic acid; TFA) and contained 150 μM m-toluic acid which served as an HPLC standard. […] Reaction progress was monitored by following the increasing absorbance (peak height) of the substrate IV cleavage product detected at […]. […]

HIV-1 PR = conditions: Blumenstein et al. 1989; cited from earlier work
HIV-2 PR = conditions: Blumenstein et al. 1989; cited from earlier work

SMILES | t1/2 of inactivation of the protease (HIV-1 protease; 2 mM inhibitor, preincubation, 25° C., pH 6.2) [h] | mode of inhibition of HIV-1 PR (HIV-1 protease; preincubation with 2 mM inhibitor (FIG. 1)) | inhibition of HIV-1 PR (HIV-1 PR) | inhibition of HIV-2 PR (HIV-2 PR)
CC(C)(C)OC(=O)N[C@@H](Cc1ccccc1)C1(C)CO1 (stereo partly shown) [Example 2] | 3 | competitive and timedependent inactivation |  | 
C/C=C/C/C=C/CCC(=O)[C@H]1O[C@H]1C(N)=O [cerulenin] |  |  | weakly inhibit | weakly inhibit
